Assay results as given in ChEMBL document CHEMBL5352438, “Discovery of Pyrrolo[2,3-d]pyrimidine derivatives as potent and selective colony stimulating factor 1 receptor kinase inhibitors” (Eur J Med Chem, 2022).

Key:
[1] = in vivo; settings: Sprague-Dawley, rat, iv, 1 mg/kg
[2] = in vivo; settings: Sprague-Dawley, rat, iv, 1 mg/kg; remark: listed apart in the source
[3] = in vivo; settings: Sprague-Dawley, rat, iv, 1 mg/kg; remark: listed apart in the source
[4] = in vivo; settings: Sprague-Dawley, rat, po, 10 mg/kg
[5] = in vivo; settings: Sprague-Dawley, rat, po, 10 mg/kg; remark: listed apart in the source
[6] = in vivo; settings: Sprague-Dawley, rat, po, 10 mg/kg; remark: listed apart in the source
[7] = in vivo; settings: Sprague-Dawley, rat, po, 10 mg/kg; remark: listed apart in the source
[8] = in vivo; settings: Sprague-Dawley, rat, iv, 1 mg/kg; remark: listed apart in the source

Cn1ccc2c(Oc3ccc(NC(=O)Cc4ccc(C(F)(F)F)c(F)c4)cc3)ncnc21
Cmax at 12 h [1]: 1430 ng/mL
AUC(0-inf) at 12 h [2]: 1310 ng·h/mL
Vd at 12 h [3]: 1.55 L/kg
CL/F at 12 h [4]: 11.6 mL/min/kg
bioavailability at 12 h [5]: 111%
Cmax at 12 h [6]: 1190 ng/mL
AUC(0-inf) at 12 h [7]: 14600 ng·h/mL
clearance at 12 h [8]: 13.3 mL/min/kg
